Tests used:
[1] = Rat vitamin D3 model: blood perfusion of posterior limbs by laser doppler perfusion imaging; format: in vivo, Sprague Dawley rat; settings: FIG. 13
Description: Statistical analysis: One-way ANOVA with Fisher's LSD test for post-hoc comparisons. The result of the ANOVA was p<0.0001. (#) indicates significant differences vs sham, (*) indicates significant differences vs vehicle, (§) indicates significant differences vs Compound 27 5 mg/kg (only applies to other Compound 27 doses), p<0.05. N=10-12 animals/group.
The model evaluated the effects of Compound 27 on tissue calcification, blood perfusion, and walking ability in rats for a duration of 13 days. Tissue calcification was induced in groups 2-5 from D1 to D3. Animals induced with calcification were administered placebo or active agent formulations from D1 onwards to assess their effects in preventing calcification. The impact of treatment on tissue calcification, blood perfusion, and walking ability was evaluated. Observations were taken at several points during the treatment from D0 to D13. All animals were weighed every day before treatment. […]
Blood perfusion (BP) was evaluated by laser doppler perfusion imaging applied to the posterior limbs of the animals using a PeriCam PSI Normal Resolution analyzer (Perimed A B, Järfälla, S E). […] The perfusion ratio (i.e., mean of the two legs) was calculated by comparing the baseline and either D4 or D13 readings for each group. In addition, the perfusion ratio was calculated by comparing group 1 and groups 2-5.

[2] = tested on: abcc6a−/− zebrafish larvae; assay: abcc6a−/− zebrafish model of Pseudoxanthoma elasticum: spinal column hypermineralization (Alizarin Red); format: in vivo; settings: 3 to 10 dpf
Description: FIG. 16 depicts an analysis of hypermineralization using Alizarin Red staining in 10 dpf abcc6a^−/− zebrafish larvae. The larvae were kept in E3-medium (n=20) and E3-medium supplemented with Compound 27 1 mM (n=18) from 3 to 10 dpf.
A stable CRISPR/Cas9 abcc6a^−/− zebrafish model characterized for spinal column hypermineralization was used for assaying the efficacy of Compound 27 in the treatment of Pseudoxanthoma elasticum (PXE; Van Gils M, et al., J Invest Dermatol […]; 138:2333-2342).
Abcc6a^−/− larvae were treated with Compound 27 at different concentrations (i.e., 100 μM, 300 μM, and 1 mM) for 7 days, starting at 3 days post fertilization (dpf), with daily refreshment of the medium containing the solved compounds. On 10 dpf, the larvae were euthanized and stained with Alizarin Red to visualize the spinal column hypermineralization, using a Leica M165 FC microscope (Leica Microsystems GmbH, Wetzlar, DE). Semi-quantification of calcification was done through image processing with ImageJ […] (Rasband W, Research Services Branch, NIH, Bethesda, MD, US).

[3] = Rat vitamin D3 model: tissue calcium content (ICP-OES); format: in vivo, Sprague Dawley rat; settings: 5, 15, 45 mg/kg s.c. daily D1-D13
Description: FIG. 12 represents the mean calcium content (±SD) in Sham rats (no VitD3 treatment) and rats treated with vehicle or Compound 27 (5, 15, and 45 mg/kg) in (A) aorta, (B) heart, (C) femoral artery, (D) carotid arteries, and (E) kidney. For femoral and carotid arteries, the mean of the calcium content in left and right vessels was used. Statistical analysis: One-way ANOVA with Fisher's LSD test for post-hoc comparisons. (#) indicates significant differences vs. sham, (*) indicates significant differences vs vehicle, (§) indicates significant differences vs Compound 27 5 mg/kg (only applies to other Compound 27 doses), (¥) indicates significant differences vs Compound 27 15 mg/kg (only applies to Compound 27 45 mg/kg), p<0.05. N=7-12 animals/group.
The model evaluated the effects of Compound 27 on tissue calcification, blood perfusion, and walking ability in rats for a duration of 13 days. Tissue calcification was induced in groups 2-5 from D1 to D3. Animals induced with calcification were administered placebo or active agent formulations from D1 onwards to assess their effects in preventing calcification. The impact of treatment on tissue calcification, blood perfusion, and walking ability was evaluated. Observations were taken at several points during the treatment from D0 to D13. All animals were weighed every day before treatment.
Fifty-eight male Sprague Dawley (SD) rats (Envigo Corp., Huntingdon, GB) weighing approximately 275-300 g were used. The animals were fed with a standard LASQCdiet® Rod14-H4 diet (LASvendi, Soest, DE). The animals were divided in 5 groups, 10 to 12 animals per group, as follows: • Group 1—Control (sham), 10 animals • Group 2—Physiological saline solution (placebo) daily, 12 animals • Group 3—Compound 27, 5 mg/kg daily, 12 animals • Group 4—Compound 27, 15 mg/kg daily, 12 animals • Group 5—Compound 27, 45 mg/kg daily, 12 animals
Calcification was induced in the animals of groups 2-5 by subcutaneous administration of 120,000 IU/kg vitamin D3 (cholecalciferol, Duphafral D3 1000; Zoetis Inc., Parsippany, NJ, US) in physiological saline 0.9% (w/v) NaCl solution (2 mL/kg) daily from D1 to D3. Animals in group 1 were administered 2 mL/kg of physiological saline solution daily from D1 to D3 via subcutaneous route with no vitamin D3. Animals in group 2 were administered 2 mL/kg of physiological saline solution daily from D1 to D13 via subcutaneous route. Animals in groups 3, 4, and 5 were administered 5 mg/kg, 15 mg/kg, and 45 mg/kg, respectively, of Compound 27 (754.45 g/mol free acid) daily in physiological saline solution (2 mL/kg) from D1 to D13 via subcutaneous route.
All the living animals of groups 1-5 were sacrificed in D13 for determining their Ca values in tissue (i.e., aorta, carotids, femoral, heart, kidney).
The animals were exsanguinated before sacrifice. Their necropsies were performed, and their whole right and left femoral arteries, left and right carotids, aorta, heart, and right kidney were collected for calcium content measurement. The tissues were lyophilized for 24 h and weighed. The lyophilized tissues were then digested using a 1:1 HNO3:HClO4 mixture in a dry bath incubator for 2-4 h at 180° C. The digested tissues were subsequently diluted using ultra-pure Milli-Q water (MilliporeSigma, Merck KGaA, Burlington, MA, US) to a final volume of 5 mL (for femoral and carotid) or 10 mL (for heart, kidney and aorta). Calcium content was quantified via inductively coupled plasma optical emission spectrometry (ICP-OES) using an Optima 7300 DV ICP-OES System spectrometer (PerkinElmer, Inc., Waltham, MA, US) according to the manufacturer's instructions.

With “4,6-O-bis(5-acetamidopentyl)-myo-inositol-1,2,3,5-tetrakis(phosphate) octasodium salt [Compound 27]” the “Effect on blood perfusion” value ([1]; 5, 15, 45 mg/kg s.c. daily, D13) was “dose-response effect from 5 mg/kg”, the “Recovery of posterior limb blood perfusion” value ([1]; 15 and 45 mg/kg s.c. daily) was “recovery of posterior limb blood perfusion at doses of 15 and 45 mg/kg” and the “Reduction of spinal hypermineralization (in words)” value ([2]; 1 mM in E3-medium, FIG. 16) was “Significant reduction of spinal hypermineralization”. For the same substance, the “Average reduction of spinal column hypermineralization” value ([2]; 1 mM in medium) was 60%, the “Physiological calcification and bone formation” value ([2]; 1 mM in medium) was “conservation of the physiological calcification and bone formation” and the “Significance (p) of reduced spinal hypermineralization vs untreated” value ([2]; 1 mM in medium) was under 0.001. The Relative calcified area ([2]; 1 mM in medium, untreated 35.2) was 14.17, the “Inhibition of ectopic calcification in all evaluated tissues” value ([3]; aorta, carotids, femoral, heart, kidney) was “inhibits ectopic calcification in all the evaluated tissues” and the “Inhibition of calcification in aorta” value ([3]; aorta, FIG. 12A) was “observed at 45 mg/kg”. The “Inhibition of calcification in the carotids” value ([3]; carotids, FIG. 12D) was “observed at 45 mg/kg”, the “Inhibition of calcification in the femoral arteries” value ([3]; femoral arteries, FIG. 12C) was “dose-response effect from 5 mg/kg” and the “Inhibition of calcification in the heart” value ([3]; heart, FIG. 12B) was “dose-response effect from 5 mg/kg”. The “Inhibition of calcification in the kidneys” value ([3]; kidney, FIG. 12E) was “dose-response effect from 5 mg/kg”.
